{
  "source": "ChEMBL document CHEMBL2321848",
  "about": "“Optimization of benzyloxazoles as non-nucleoside inhibitors of HIV-1 reverse transcriptase to enhance Y181C potency” (Bioorg Med Chem Lett, 2013)",
  "key": {"[1]": {"system": "Human immunodeficiency virus 1", "experiment": "Antiviral activity against multidrug resistant HIV1 IIIB containing reverse transcriptase K103N and Y181C mutation infected in human MT2 cells assessed as cytoprotection from infection by MTT colorimetric method", "type": "functional, organism-based"}, "[2]": {"system": "Human immunodeficiency virus 1", "experiment": "microbe, parasite or virus in culture", "conditions": "Human immunodeficiency virus 1, IIIB, MT2; call rule not given here"}, "[3]": {"system": "Human immunodeficiency virus 1", "experiment": "Antiviral activity against multidrug resistant HIV1 IIIB containing reverse transcriptase Y181C mutation infected in human MT2 cells assessed as cytoprotection from infection by MTT colorimetric method", "type": "functional, organism-based"}, "[4]": {"system": "MT2", "experiment": "(§1) Cytotoxicity in human MT2 cells assessed as inhibition of cell growth", "type": "cell-based", "conditions": "mt2"}, "[5]": {"experiment": "as §1", "type": "cell-based", "conditions": "MT2 cells"}, "[6]": {"experiment": "Octanol-water partition coefficient, log P of the compound", "type": "physicochemical"}, "[7]": {"conditions": "Human immunodeficiency virus 1, IIIB, MT2, read-out: EC50"}},
  "data": [
    {"smiles": "CCc1cc(F)c(Cc2cnc(Nc3ccc(C#N)c(Cl)c3)o2)c(F)c1", "values": [
      {"measurement": "EC50", "setting": "[1]; [7]", "result": 210, "unit": "nM"},
      {"measurement": "EC50", "setting": "[2]", "result": 1.3, "unit": "nM"},
      {"measurement": "EC50", "setting": "[3]; [7]", "result": 6.9, "unit": "nM"},
      {"measurement": "CC50", "setting": "[4]", "result": 10000, "unit": "nM"}
    ]},
    {"smiles": "Cc1ccnc2c1NC(=O)c1cccnc1N2C1CC1", "note": "[NEVIRAPINE]", "values": [
      {"measurement": "EC50", "setting": "[1]; mt2", "result": "Not Active"},
      {"measurement": "EC50", "setting": "[3]; mt2", "result": "Not Active"},
      {"measurement": "CC50", "setting": "[5]", "result": "> 100000", "unit": "nM"}
    ]},
    {"smiles": "N#Cc1ccc(Nc2ncc(Cc3c(F)cc(CC4CC4)cc3F)o2)cc1Cl", "values": [
      {"measurement": "EC50", "setting": "[1]; [7]", "result": 15000, "unit": "nM"},
      {"measurement": "EC50", "setting": "[2]", "result": 68, "unit": "nM"},
      {"measurement": "EC50", "setting": "[3]; [7]", "result": 1200, "unit": "nM"},
      {"measurement": "CC50", "setting": "[4]", "result": 29000, "unit": "nM"}
    ]},
    {"smiles": "COCc1cc(F)c(Cc2cnc(Nc3ccc(C#N)c(Cl)c3)o2)c(F)c1", "values": [
      {"measurement": "EC50", "setting": "[1]; [7]", "result": 6300, "unit": "nM"},
      {"measurement": "EC50", "setting": "[2]", "result": 3.6, "unit": "nM"},
      {"measurement": "EC50", "setting": "[3]; [7]", "result": 690, "unit": "nM"},
      {"measurement": "CC50", "setting": "[4]", "result": 15000, "unit": "nM"}
    ]},
    {"smiles": "N#Cc1ccc(Nc2ncc(Cc3c(F)cc(F)cc3F)o2)cc1Cl", "values": [
      {"measurement": "EC50", "setting": "[1]; mt2", "result": "Not Active"},
      {"measurement": "EC50", "setting": "[2]", "result": 9.1, "unit": "nM"},
      {"measurement": "EC50", "setting": "[3]; [7]", "result": 910, "unit": "nM"},
      {"measurement": "CC50", "setting": "[4]", "result": 7000, "unit": "nM"}
    ]},
    {"smiles": "N#Cc1ccc(Nc2ncc(Cc3c(F)cccc3F)o2)cc1", "values": [
      {"measurement": "EC50", "setting": "[1]; mt2", "result": "Not Active"}
    ]},
    {"smiles": "CCc1cc(F)c(Cc2cnc(Nc3ccc(Oc4cccnc4)c(Cl)c3)o2)c(F)c1", "values": [
      {"measurement": "EC50", "setting": "[1]; [7]", "result": 800, "unit": "nM"},
      {"measurement": "EC50", "setting": "[2]", "result": 5, "unit": "nM"},
      {"measurement": "EC50", "setting": "[3]; [7]", "result": 60, "unit": "nM"},
      {"measurement": "CC50", "setting": "[4]", "result": 5000, "unit": "nM"}
    ]},
    {"smiles": "CCC(C)c1cc(F)c(Cc2cnc(Nc3ccc(C#N)c(Cl)c3)o2)c(F)c1", "note": "(racemic)", "values": [
      {"measurement": "EC50", "setting": "[1]; [7]", "result": 2800, "unit": "nM"},
      {"measurement": "EC50", "setting": "[2]", "result": 120, "unit": "nM"},
      {"measurement": "EC50", "setting": "[3]; [7]", "result": 150, "unit": "nM"},
      {"measurement": "CC50", "setting": "[4]", "result": 40000, "unit": "nM"}
    ]},
    {"smiles": "CCOc1cc(F)c(Cc2cnc(Nc3ccc(C#N)c(Cl)c3)o2)c(F)c1", "values": [
      {"measurement": "EC50", "setting": "[1]; [7]", "result": 750, "unit": "nM"},
      {"measurement": "EC50", "setting": "[2]", "result": 28, "unit": "nM"},
      {"measurement": "EC50", "setting": "[3]; [7]", "result": 48, "unit": "nM"},
      {"measurement": "CC50", "setting": "[4]", "result": 15000, "unit": "nM"}
    ]},
    {"smiles": "CC(C)c1cc(F)c(Cc2cnc(Nc3ccc(C#N)c(Cl)c3)o2)c(F)c1", "values": [
      {"measurement": "EC50", "setting": "[1]; [7]", "result": 120, "unit": "nM"},
      {"measurement": "logP", "setting": "[6]", "result": 3.7},
      {"measurement": "EC50", "setting": "[2]", "result": 5.2, "unit": "nM"},
      {"measurement": "EC50", "setting": "[3]; [7]", "result": 7.2, "unit": "nM"},
      {"measurement": "CC50", "setting": "[4]", "result": 5000, "unit": "nM"}
    ]},
    {"smiles": "CC(C)(C)c1cc(Cl)c(Cc2cnc(Nc3ccc(C#N)c(Cl)c3)o2)c(Cl)c1", "values": [
      {"measurement": "EC50", "setting": "[1]; mt2", "result": "Not Active"},
      {"measurement": "EC50", "setting": "[2]", "result": 1300, "unit": "nM"},
      {"measurement": "EC50", "setting": "[3]; mt2", "result": "Not Active"},
      {"measurement": "CC50", "setting": "[4]", "result": 6000, "unit": "nM"}
    ]},
    {"smiles": "Cc1cc(F)c(Cc2cnc(Nc3ccc(C#N)c(Cl)c3)o2)c(F)c1", "values": [
      {"measurement": "EC50", "setting": "[1]; [7]", "result": 7200, "unit": "nM"},
      {"measurement": "EC50", "setting": "[2]", "result": 11, "unit": "nM"},
      {"measurement": "EC50", "setting": "[3]; [7]", "result": 210, "unit": "nM"},
      {"measurement": "CC50", "setting": "[4]", "result": 31000, "unit": "nM"}
    ]},
    {"smiles": "N#Cc1ccc(Nc2ncc(Cc3c(F)cc(C4CC4)cc3F)o2)cc1Cl", "values": [
      {"measurement": "EC50", "setting": "[1]; [7]", "result": 10700, "unit": "nM"},
      {"measurement": "logP", "setting": "[6]", "result": 3.3},
      {"measurement": "EC50", "setting": "[2]", "result": 24, "unit": "nM"},
      {"measurement": "EC50", "setting": "[3]; [7]", "result": 1500, "unit": "nM"},
      {"measurement": "CC50", "setting": "[4]", "result": 65000, "unit": "nM"}
    ]}
  ]
}
